Experimental data: patent US20250099407A1, “2-AMINO BENZOPHENONE DERIVATIVES FOR TARGETED FERROPTOSIS INDUCTION IN CANCER THERAPY” (INDIAN INSTITUTE OF TECHNOLOGY KANPUR, priority 2023, published 2025)
pEC50: −log10 of the molar value. Read-outs that look alike come from different tables or passages of the source.

How the values were obtained:
[1] = system: 22Rv1; assay: Cell viability, CellTiter-Glo assay, 22Rv1; assay type: cell-based
Procedure: (§1) The viability of screened cancer cells was recorded using a luminescence-based CellTiter-Glo® assay for the ATP quantification. The screening concentration of the molecule ranged from 100/10 μM to 45/4.5 nM with an 8-point-3-fold dilution series in DMEM media (>0.1% DMSO as control). Each experiment was conducted in more than two biological replicates with three technical replicates. The error bar is a representation of standard deviation among the technical replicates.
as §1, with “IITK3002” for “the molecule”, “10” for “100/10”, “4.5” for “45/4.5”
(§2) a. […] In parallel, we have also synthesized the bromoacetamide (IITK3002) version of the lead molecules which is slightly more reactive with thiol nucleophiles when compared to chlorooacetamide warheads as depicted in FIG. 13. […] In addition, we also evaluated the molecules' antiproliferative potency against a panel of twelve different cancer phenotypes. The set of cancer cell lines included liver, breast, colon, myeloma, bone, blood, skin, brain and prostate lineages (FIG. 2, 3, Table 1).

[2] = system: U2OS; assay: Cell viability, CellTiter-Glo assay, U2OS; assay type: cell-based
Summary of the method: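 Cell viability was measured by CellTiter-Glo ATP luminescence in DMEM, with DMSO control. The compound was tested in an 8-point 3-fold dilution series from 100 or 10 μM down to 45 or 4.5 nM. Each run had at least two biological replicates, each in technical triplicate.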

[3] = system: A549; assay: Cell viability, A549; assay type: cell-based; settings: Homo sapiens
[4] = system: PC3; assay: Cell viability, CellTiter-Glo assay, PC3; assay type: cell-based
Procedure: as §1
as §1, with “IITK3002” for “the molecule”, “10” for “100/10”, “4.5” for “45/4.5”
as §2

[5] = system: Huh-7 cells; assay: Cell viability, luminescence-based CellTiter-Glo assay, Huh-7 cells
Summary of the method: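 ATP-based CellTiter-Glo luminescence in Huh-7 cells in DMEM, with DMSO (>0.1%) as control. Single-point screens used 10 μM compound with or without Fer-1 (10 μM); dose responses used 8-point 3-fold dilutions from 100/10 μM to 45/4.5 nM. More than two biological replicates with three technical replicates each.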

[6] = system: cancer cells; assay: Antiproliferative potency against cancer cells / panel of cancer cell lines; assay type: cell-based
Procedure: as §1
as §1, with “IITK3002” for “the molecule”, “10” for “100/10”, “4.5” for “45/4.5”
as §2

[7] = Homo sapiens, 22Rv1, 22Rv1, cell viability
[8] = Homo sapiens, PC-3, PC3, cell viability
[9] = Homo sapiens, Huh-7, Huh-7 cells, antiproliferative activity, read-out: EC50 in Huh-7 cells
[10] = Homo sapiens, Huh-7, Huh-7 cells, cell viability, read-out: EC50 Huh-7
[11] = cell line not stated, read-out: EC50, inhibition of cancer cell proliferation
[12] = range over twelve different cancer phenotypes, read-out: EC50 concentration range across panel of twelve cancer cell lines
[13] = Huh-7 cells, cell viability, read-out: EC50 Huh-7

Row | SMILES | pEC50 [1, 7] | pEC50 ([2]; Homo sapiens) | pEC50 [3] | pEC50 [4, 8] | pEC50 [5, 9] | pEC50 [5, 10] | pEC50 ([5]; Huh-7 cells, antiproliferative activity, read-out: EC50 in Huh-7 cells) | pEC50 ([1]; 22Rv1, cell viability) | pEC50 [2] | pEC50 [6, 11] | pEC50 [6, 12] | pEC50 ([4]; PC3, cell viability) | screening of electrophilic small molecules, viability of Huh-7 cells ([5]; 10 μM with or without Fer-1 (10 μM)) | pEC50 [5, 13]
1 | C#CCN(C(=O)CCl)c1ccccc1C(=O)c1ccccc1 [IITK3003, N-(2-benzoylphenyl)-2-chloro-N-(prop-2-yn-1-yl)acetamide] | 6.38 | 5.89 | 6.15 | 5.95 | 7.36 | 7.36 | 7.22 |  |  |  |  |  |  | 
2 | CN(C(=O)CCl)c1ccccc1C(=O)c1ccccc1 [IITK3001, N-(2-benzoylphenyl)-2-chloro-N-methylacetamide] | 6.83 | 6.45 | 6.21 | 6.46 |  | 6.63 |  | 6.82 | 6.46 | 7.15 | 6.31 to 6.88 | 6.46 | potent inhibitors of Huh-7 cells | 6.63
3 | CN(C(=O)CBr)c1ccccc1C(=O)c1ccccc1 [IITK3002, N-(2-benzoylphenyl)-2-bromo-N-methylacetamide] | 7.40 | 6.88 | 7.52 | 6.71 | 7.52 | 7.49 |  |  | 6.89 | 8.52 | 6.88 to 7.70 | 6.72 |  | 7.50
